What was measured:
IMPDH type I = IMPDH type I (Homo sapiens, UniProt P20839); conditions: Carr et al.; read-out: Ki, IMPDH type I expressed in normal cells; cited from earlier work
B and T lymphocyte = conditions: cited from earlier work
tumors = conditions: quick conversion into the inactive β-glucuronide after administration; cited from earlier work
glucuronosyltransferases = test: glucuronidation by glucuronosyltransferases in vitro; type: in vitro ADME; conditions: parallel experiments
[1] = system: inosine monophosphate dehydrogenase (IMPDH); conditions: Marquez et al., J. Med. Chem. 1986; cited from earlier work
human IMPDH type II = human IMPDH type II (Homo sapiens, UniProt P12268); test: inhibitory activity against human IMPDH type II; type: biochemical; conditions: 100 μM NAD, 50 μM IMP, 25 nM enzyme, pH 8.0; read-out: Ki, inhibitor of IMPDH type II
[2] = system: K562 erythroleucemic cells; test: anti-proliferative activity against K562 cells; type: cell-based; conditions: Homo sapiens, read-out: IC50, growth of K562 cells
Procedure: The compounds of structure 1 are stable in plasma at room temperature for at least several days. It is assayed for both inhibitory activity against human IMPDH type II and for anti-proliferative activity against K562 erythroleucemic cells. […] The ability to induce differentiation in K562 cells is also estimated by determining the fraction of benzidine positive cells converted following incubation with β-methylene-MAD.

IMPDH type I, sequence (P20839 whole entry): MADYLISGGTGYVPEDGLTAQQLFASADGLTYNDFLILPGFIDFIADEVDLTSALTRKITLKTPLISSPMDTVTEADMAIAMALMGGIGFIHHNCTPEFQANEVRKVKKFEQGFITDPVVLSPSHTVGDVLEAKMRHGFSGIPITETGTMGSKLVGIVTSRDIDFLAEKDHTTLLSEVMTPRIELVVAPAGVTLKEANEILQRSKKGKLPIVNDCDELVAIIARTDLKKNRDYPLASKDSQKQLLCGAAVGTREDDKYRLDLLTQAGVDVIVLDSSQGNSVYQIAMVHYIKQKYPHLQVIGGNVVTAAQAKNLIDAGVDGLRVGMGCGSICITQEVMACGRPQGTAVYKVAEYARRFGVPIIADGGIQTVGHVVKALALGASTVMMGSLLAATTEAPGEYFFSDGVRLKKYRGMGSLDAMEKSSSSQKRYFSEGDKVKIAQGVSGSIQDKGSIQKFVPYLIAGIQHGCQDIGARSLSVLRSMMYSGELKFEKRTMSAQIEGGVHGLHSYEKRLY

## COc1c(C)c2c(c(O)c1C/C=C(\C)CCC(=O)O)C(=O)OC2 [mycophenolic acid, Mycophenolic acid]
IMPDH type I
  Ki: 33 to 37 nM
B and T lymphocyte
  B and T lymphocyte proliferation: blocks
tumors
  activity against tumors: inactive
glucuronosyltransferases
  glucuronidation by various glucuronosyltransferases: effectively glucuronidated

## NC(=O)c1csc([C@@H]2O[C@H](COP(=O)(O)CP(=O)(O)OC[C@H]3O[C@@H](n4cnc5c(N)ncnc54)[C@H](O)[C@@H]3O)[C@@H](O)[C@H]2O)n1 [β-methylene TAD]
[1]
  inhibition of IMPDH: potent inhibitor

## COc1c(C)c2c(c(O)c1CC=C(C)CCCOP(=O)(O)CP(=O)(O)OCC1OC(n3cnc4c(N)ncnc43)C(O)C1O)C(=O)OC2 (stereo not drawn) [β-methylene-MAD, P^1-(adenosin-5-yl)-P^2-(mycophenol-5′-yl)methylenebis(phosphonate)]
Human IMPDH type II
  Ki: 300 nM
[2]
  IC50: 6000 nM
glucuronosyltransferases
  glucuronidation by various glucuronosyltransferases: completely resistant to glucuronidation
